Source: patent publication US20230398130A1, “METHODS AND COMPOSITIONS FOR DIFFERENTIATING STEM CELLS” (Massachusetts Institute of Technology, priority 2020, published 2023)

What was measured:
ISC-enriched organoids [1] = experiment: Primary screen, 384-well 2.5-D organoid differentiation (ENR+CD, 6 days): basal lysozyme secretion (LYZ.NS); type: cell-based, murine; conditions: for Dose.FC.LYZ.NS / Z.LYZ.NS / SSMD.LYZ.NS: primary screen; for Dose.FC.LYZ.NS: FC vs plate median; for SSMD.LYZ.NS: strictly standardized mean difference
From the text: (§1) High-throughput screening.

ISC-enriched organoids [2] = experiment: Primary screen, 384-well 2.5-D organoid differentiation (ENR+CD, 6 days): carbachol-induced lysozyme secretion (LYZ.S); type: cell-based, murine; conditions: for Dose.FC.LYZ.S / Z.LYZ.S / SSMD.LYZ.S: primary screen; for Dose.FC.LYZ.S: FC vs plate median; for Z.LYZ.S: standard z score; for SSMD.LYZ.S: strictly standardized mean difference
From the text: as §1

ISC-enriched organoids [3] = experiment: Primary screen, 384-well 2.5-D organoid differentiation (ENR+CD, 6 days, Target Selective Inhibitor Library, vs whole-plate median): ATP (CellTiter-Glo 3D, CTG); conditions: for Dose.FC.CTG / Z.CTG / SSMD.CTG: primary screen; for Dose.FC.CTG: FC vs plate median; for SSMD.CTG: strictly standardized mean difference
[4] = dose 0.08 uM, standard z score of FC
[5] = dose 0.40 uM, standard z score of FC
[6] = dose 2.00 uM, standard z score of FC
[7] = dose 10.00 uM, standard z score of FC
[8] = Dose 10.00 uM, standard z score
[9] = 3rd of the 4 dose lines of the treatment (dose not given)
[10] = 4th of the 4 dose lines of the treatment (dose not given)
[11] = dose 0.08 uM (1st of 4 lines per treatment; dose not printed in this part)
[12] = dose 0.40 uM (2nd of 4 lines per treatment; dose not printed in this part)
[13] = dose 2.00 uM (3rd of 4 lines per treatment; dose not printed in this part)
[14] = dose 10.00 uM (4th of 4 lines per treatment; dose not printed in this part)

CNC(=O)[C@H](Cc1ccccc1)NC(=O)[C@H](CC(C)C)[C@H](CSc1cccs1)C(=O)NO [Batimastat (BB-94)]
Dose.FC.LYZ.NS (ISC-enriched organoids [1]; dose 0.08 uM, ENR+CD 6 days): −0.003 log 2 fold change
Z.LYZ.NS (ISC-enriched organoids [1]; [4]): −0.025
Dose.FC.LYZ.NS (ISC-enriched organoids [1]; dose 0.40 uM, ENR+CD 6 days): 0.005 log 2 fold change
Z.LYZ.NS (ISC-enriched organoids [1]; [5]): 0.042
Dose.FC.LYZ.NS (ISC-enriched organoids [1]; dose 2.00 uM, ENR+CD 6 days): 0.081 log 2 fold change
Z.LYZ.NS (ISC-enriched organoids [1]; [6]): 0.707
Dose.FC.LYZ.NS (ISC-enriched organoids [1]; dose 10.00 uM, ENR+CD 6 days): −0.075 log 2 fold change
Z.LYZ.NS (ISC-enriched organoids [1]; [7]): −0.649
Dose.FC.LYZ.S (ISC-enriched organoids [2]; dose 0.08 uM, ENR+CD 6 days): 0.053 log 2 fold change
Dose.FC.LYZ.S (ISC-enriched organoids [2]; dose 0.40 uM, ENR+CD 6 days): 0.028 log 2 fold change
Dose.FC.LYZ.S (ISC-enriched organoids [2]; dose 2.00 uM, ENR+CD 6 days): 0.056 log 2 fold change
Dose.FC.LYZ.S (ISC-enriched organoids [2]; dose 10.00 uM, ENR+CD 6 days): −0.107 log 2 fold change
Dose.FC.CTG (ISC-enriched organoids [3]; dose 0.08 uM, ENR+CD 6 days): 0.035 log 2 fold change
Z.CTG (ISC-enriched organoids [3]; [4]): 0.084
Dose.FC.CTG (ISC-enriched organoids [3]; dose 0.40 uM, ENR+CD 6 days): −0.095 log 2 fold change
Z.CTG (ISC-enriched organoids [3]; [5]): −0.226
Dose.FC.CTG (ISC-enriched organoids [3]; dose 2.00 uM, ENR+CD 6 days): −0.049 log 2 fold change
Z.CTG (ISC-enriched organoids [3]; [6]): −0.117
Dose.FC.CTG (ISC-enriched organoids [3]; dose 10.00 uM, ENR+CD 6 days): −0.283 log 2 fold change
Z.CTG (ISC-enriched organoids [3]; [7]): −0.676

Cn1cc(/C=C2\C(=O)Nc3cccnc32)c2ccccc21 [GW441756]
Dose.FC.LYZ.NS (ISC-enriched organoids [1]; Dose 0.08 uM): 0.046 log 2 fold change
Z.LYZ.NS (ISC-enriched organoids [1]; Dose 0.08 uM, standard z score): 0.399
Dose.FC.LYZ.NS (ISC-enriched organoids [1]; Dose 0.40 uM): 0.061 log 2 fold change
Z.LYZ.NS (ISC-enriched organoids [1]; Dose 0.40 uM, standard z score): 0.529
Dose.FC.LYZ.NS (ISC-enriched organoids [1]; Dose 2.00 uM): 0.117 log 2 fold change
Z.LYZ.NS (ISC-enriched organoids [1]; Dose 2.00 uM, standard z score): 1.023
Dose.FC.LYZ.NS (ISC-enriched organoids [1]; Dose 10.00 uM): 0.088 log 2 fold change
Z.LYZ.NS (ISC-enriched organoids [1]; [8]): 0.763
SSMD.LYZ.NS (ISC-enriched organoids [1]; [9]): 1.215
SSMD.LYZ.NS (ISC-enriched organoids [1]; [10]): 0.357
Dose.FC.LYZ.S (ISC-enriched organoids [2]; Dose 0.08 uM): 0.075 log 2 fold change
Dose.FC.LYZ.S (ISC-enriched organoids [2]; Dose 0.40 uM): 0.196 log 2 fold change
Dose.FC.LYZ.S (ISC-enriched organoids [2]; Dose 2.00 uM): 0.125 log 2 fold change
Dose.FC.LYZ.S (ISC-enriched organoids [2]; Dose 10.00 uM): 0.071 log 2 fold change
Z.LYZ.S (ISC-enriched organoids [2]; [9]): 0.806
Z.LYZ.S (ISC-enriched organoids [2]; [10]): 0.458
SSMD.LYZ.S (ISC-enriched organoids [2]; [9]): 0.911
SSMD.LYZ.S (ISC-enriched organoids [2]; [10]): 0.449
Dose.FC.CTG (ISC-enriched organoids [3]; Dose 0.08 uM): 0.048 log 2 fold change
Z.CTG (ISC-enriched organoids [3]; Dose 0.08 uM, standard z score): 0.114
Dose.FC.CTG (ISC-enriched organoids [3]; Dose 0.40 uM): −0.105 log 2 fold change
Z.CTG (ISC-enriched organoids [3]; Dose 0.40 uM, standard z score): −0.252
Dose.FC.CTG (ISC-enriched organoids [3]; Dose 2.00 uM): 0.152 log 2 fold change
Z.CTG (ISC-enriched organoids [3]; Dose 2.00 uM, standard z score): 0.364
Dose.FC.CTG (ISC-enriched organoids [3]; Dose 10.00 uM): −0.113 log 2 fold change
Z.CTG (ISC-enriched organoids [3]; [8]): −0.270
SSMD.CTG (ISC-enriched organoids [3]; [9]): 0.468
SSMD.CTG (ISC-enriched organoids [3]; [10]): −0.350

CN1CCc2cc3c(cc2[C@H]1[C@@H]1OC(=O)c2c1ccc1c2OCO1)OCO3 [(+)-Bicuculline]
SSMD.LYZ.NS_Rep (strictly standardized mean difference) (ISC-enriched organoids [1]; [11]): 0.481
SSMD.LYZ.NS_Rep (strictly standardized mean difference) (ISC-enriched organoids [1]; [12]): 0.106
SSMD.LYZ.NS_Rep (strictly standardized mean difference) (ISC-enriched organoids [1]; [13]): 0.276
SSMD.LYZ.NS_Rep (strictly standardized mean difference) (ISC-enriched organoids [1]; [14]): 0.175
Dose.FC.LYZ.NS (ISC-enriched organoids [1]; dose 0.08 uM, ENR+CD 6 days): 0.092 log 2 fold change
Z.LYZ.NS (ISC-enriched organoids [1]; [4]): 0.805
Dose.FC.LYZ.NS (ISC-enriched organoids [1]; dose 0.40 uM, ENR+CD 6 days): 0.013 log 2 fold change
Z.LYZ.NS (ISC-enriched organoids [1]; [5]): 0.116
Dose.FC.LYZ.NS (ISC-enriched organoids [1]; dose 2.00 uM, ENR+CD 6 days): 0.031 log 2 fold change
Z.LYZ.NS (ISC-enriched organoids [1]; [6]): 0.270
Dose.FC.LYZ.NS (ISC-enriched organoids [1]; dose 10.00 uM, ENR+CD 6 days): 0.020 log 2 fold change
Z.LYZ.NS (ISC-enriched organoids [1]; [7]): 0.176
SSMD.LYZ.S_Rep (strictly standardized mean difference) (ISC-enriched organoids [2]; [11]): 0.545
Z.LYZ.S (standard z score) (ISC-enriched organoids [2]; [11]): 1.005
SSMD.LYZ.S_Rep (strictly standardized mean difference) (ISC-enriched organoids [2]; [12]): 0.216
Z.LYZ.S (standard z score) (ISC-enriched organoids [2]; [12]): 0.221
SSMD.LYZ.S_Rep (strictly standardized mean difference) (ISC-enriched organoids [2]; [13]): −0.164
Z.LYZ.S (standard z score) (ISC-enriched organoids [2]; [13]): −0.169
SSMD.LYZ.S_Rep (strictly standardized mean difference) (ISC-enriched organoids [2]; [14]): 0.264
Z.LYZ.S (standard z score) (ISC-enriched organoids [2]; [14]): 0.465
Dose.FC.LYZ.S (ISC-enriched organoids [2]; dose 0.08 uM, ENR+CD 6 days): 0.155 log 2 fold change
Dose.FC.LYZ.S (ISC-enriched organoids [2]; dose 0.40 uM, ENR+CD 6 days): 0.034 log 2 fold change
Dose.FC.LYZ.S (ISC-enriched organoids [2]; dose 2.00 uM, ENR+CD 6 days): −0.026 log 2 fold change
Dose.FC.LYZ.S (ISC-enriched organoids [2]; dose 10.00 uM, ENR+CD 6 days): 0.072 log 2 fold change
SSMD.CTG_Rep (strictly standardized mean difference) (ISC-enriched organoids [3]; [11]): 0.472
SSMD.CTG_Rep (strictly standardized mean difference) (ISC-enriched organoids [3]; [12]): −0.078
SSMD.CTG_Rep (strictly standardized mean difference) (ISC-enriched organoids [3]; [13]): −0.237
SSMD.CTG_Rep (strictly standardized mean difference) (ISC-enriched organoids [3]; [14]): −0.405
Dose.FC.CTG (ISC-enriched organoids [3]; dose 0.08 uM, ENR+CD 6 days): 0.318 log 2 fold change
Z.CTG (ISC-enriched organoids [3]; [4]): 0.760
Dose.FC.CTG (ISC-enriched organoids [3]; dose 0.40 uM, ENR+CD 6 days): −0.029 log 2 fold change
Z.CTG (ISC-enriched organoids [3]; [5]): −0.069
Dose.FC.CTG (ISC-enriched organoids [3]; dose 2.00 uM, ENR+CD 6 days): −0.166 log 2 fold change
Z.CTG (ISC-enriched organoids [3]; [6]): −0.396
Dose.FC.CTG (ISC-enriched organoids [3]; dose 10.00 uM, ENR+CD 6 days): −0.132 log 2 fold change
Z.CTG (ISC-enriched organoids [3]; [7]): −0.315
